A short description of data set [1]: Drug levels in the retina after intravitreal injection, LC/MS/MS. Conditions: 225, 271, and 315 days after a single injection. The data set is classed as in vivo, Dutch-Belted rabbits. How it is done:
The rabbits were then sacrificed at various time points, and the various ocular tissues were separated. The drug levels in the retina were measured by Liquid chromatography-mass spectrometry (LC/MS/MS). The drug levels were plotted as ng/g. The Kd for binding of AXT107 to its integrin targets is 1-2 nM.

Data set [2] is described as follows: Gel formation and persistence in the vitreous after intravitreal injection.
Protocol: In FIG. 3, AXT107 was injected into the vitreous of Dutch-Belted rabbits. […] The retina with the optic nerve is visible in the back of the eye.
In FIG. 7, AXT107 was injected into the vitreous of Dutch-Belted rabbits in a PK toxicology study.

No end group written: not given here.

Turning to LRRFSTAPFAFIDINDVINF [AXT107], in data set [1], the “AXT107 level in the retina” value is on record as “significant levels”. Besides, the “gels in the vitreous at necropsy, PK toxicology study” value in data set [2] (Dutch-Belted rabbits, 6 Months after administration, all doses) is listed as “visible in the vitreous at all doses”. Moreover, the “effect of gel on the visual axis” value in data set [2] (rabbit eye, after intravitreal injection) is listed as “does not block the visual axis”. Further, the “time the gel stays in place without breaking apart or migrating” value in data set [2] (rabbit eye, doses of 100 μg, 250 μg, 500 μg, and 1000 μg) is recorded as 15 months. Moreover, in data set [2] (rabbit vitreous), the “release of peptide from gel” value was “released the peptide in a sustained manner”.
